From US12343400B2, “Brain tumor-targeting peptide and application thereof” (priority 2018, dated 2025)
Where a SMILES comes first, the peptide text is derived from it. Bridges are numbered along the chain shown (N, C = ends). Where no end group is shown, it is not given here. The star is where a group is joined. Paclitaxel(2'-O-succinyl) = CC(=O)O[C@H]1C(=O)[C@@]2(C)[C@H]([C@H](OC(=O)c3ccccc3)[C@]3(O)C[C@H](OC(=O)[C@H](OC(=O)CCC(=O)*)[C@@H](NC(=O)c4ccccc4)c4ccccc4)C(C)=C1C3(C)C)[C@]1(OC(C)=O)CO[C@@H]1C[C@@H]2O

Columns and labels:
U87 brain tumors = settings: mouse, in vivo
Experimental: Cyanine5.5 NHS ester labeling reagent of the Lumiprobe brand was used to fluorescently label each short peptide, and each short peptide was labeled with one fluorescent molecule. […] The fluorescence intensity per unit area was calculated for the brain tumor site and other brain sites respectively, and the enrichment factor of the corresponding polypeptide at the tumor site can be obtained by dividing the fluorescence intensity per unit area at the brain tumor site by the fluorescence intensity per unit area at other brain sites.

U87MG brain glioma = test: Survival time of brain glioma model mice; assay type: in vivo, nude mice; settings: tail vein, equal dose
Experimental: On the first day, 10^6 U87MG cells were inoculated at the right caudate nucleus of nude mice of 6-8 weeks old. Three days later, a solvent or equal dose of paclitaxel or PBL001 was administered via the tail vein, and the survival time of each group of mice was recorded, as shown in FIG. 13.

u87 brain glioma = test: Enrichment of fluorescent short peptides in brain and tumor of u87 brain glioma model mice; assay type: in vivo, nude mice
Experimental: u87 brain glioma cells were cultivated. When the cells grew to a sufficient amount, the cells were taken, 8-weeks old nude mice were selected, the brains were located, and 5× 10^5 cells were injected at the location for brain tumorigenesis. U87 tumorigenesis cell line is a cell line with luciferase gene transferred, and the mouse imager can be used to observe the tumorigenesis effect in real time.
After tumorigenesis of the tumor model mice became stable, 100 μl of solution of short peptides labeled with fluorescent molecules was injected into the tail veins. A short peptide Angiopep 2, which was from the Angiochem company and was reported in an article to be able to cross the blood-brain barrier, was selected as a reference control. It is currently reported that this short peptide has excellent applications in crossing the blood-brain barrier and targeting brain tumors. The negative control was fluorescent molecule cy5.5 of the same amount of fluorescence equivalent. After the tail vein injection, the small animal in vivo imaging system IVIS was used to check the brain fluorescence. 100 μl of 5 mg/ml luciferase reaction substrate was injected into the intraperitoneal cavity. After 5 minutes, the small animal imaging system was used to check the brain tumors.
The brains of the mice were taken and the fluorescence of the brains was compared.

## CC[C@H](C)[C@H](NC(=O)CNC(=O)[C@H](CCCNC(=N)N)NC(=O)[C@H](CC(C)C)NC(=O)[C@H](Cc1ccccc1)NC(=O)[C@H](CC(N)=O)NC(=O)[C@H](CC(N)=O)NC(=O)[C@H](CCCNC(=N)N)NC(=O)[C@H](CCCCN)NC(=O)[C@@H]1CCCN1C(=O)[C@H](CCCNC(=N)N)NC(=O)CNC(=O)CNC(=O)[C@H](Cc1ccc(O)cc1)NC(=O)[C@H](Cc1ccccc1)NC(=O)[C@@H](N)[C@@H](C)O)C(=O)N[C@@H](CCCNC(=N)N)C(=O)N[C@H]1CSSC[C@@H](C(=O)O)NC(=O)[C@H](CC(=O)O)NC(=O)[C@@H]2CCCN2C(=O)CNC(=O)[C@H](CCCCN)NC(=O)[C@H](CC(=O)O)NC(=O)CNC(=O)[C@H](CCCNC(=N)N)NC1=O [SEQ ID NO:8] (H-TFYGGRPKRNNFLRGIRCRGDKGPDC-OH; disulfide 18-26; N-terminus and C-terminus assumed)
U87 brain tumors
  tumor enrichment (enrichment factor tumor site / other brain sites) compared to SEQ ID NO:2 peptide: not as significant as the other three synthesized polypeptides

## CC[C@H](C)[C@H](NC(=O)CNC(=O)[C@H](CCCNC(=N)N)NC(=O)[C@H](CC(C)C)NC(=O)[C@H](Cc1ccccc1)NC(=O)[C@H](CC(N)=O)NC(=O)[C@H](CC(N)=O)NC(=O)[C@H](CCCNC(=N)N)NC(=O)[C@H](CCCCNC(=O)CCC(=O)O[C@@H](C(=O)O[C@H]1C[C@@]2(O)[C@@H](OC(=O)c3ccccc3)[C@@H]3[C@]4(OC(C)=O)CO[C@@H]4C[C@H](O)[C@@]3(C)C(=O)[C@H](OC(C)=O)C(=C1C)C2(C)C)[C@@H](NC(=O)c1ccccc1)c1ccccc1)NC(=O)[C@@H]1CCCN1C(=O)[C@H](CCCNC(=N)N)NC(=O)CNC(=O)CNC(=O)[C@H](Cc1ccc(O)cc1)NC(=O)[C@H](Cc1ccccc1)NC(=O)[C@@H](NC(=O)CCC(=O)O[C@@H](C(=O)O[C@H]1C[C@@]2(O)[C@@H](OC(=O)c3ccccc3)[C@@H]3[C@]4(OC(C)=O)CO[C@@H]4C[C@H](O)[C@@]3(C)C(=O)[C@H](OC(C)=O)C(=C1C)C2(C)C)[C@@H](NC(=O)c1ccccc1)c1ccccc1)[C@@H](C)O)C(=O)N[C@@H](CCCNC(=N)N)C(=O)N[C@@H](CO)C(=O)N[C@@H](CCCNC(=N)N)C(=O)NCC(=O)N[C@@H](CC(=O)O)C(=O)O [PBL001] ({Paclitaxel(2'-O-succinyl)}-TFYGGRPK(Paclitaxel(2'-O-succinyl))RNNFLRGIRSRGD-OH)
U87MG brain glioma
  toxic and side effects compared with paclitaxel: lower toxic and side effects

## TFYGGRPKRNNFLRGIRSRGD [Pb001]
u87 brain glioma; brain glioma model mice (FIG. 6)
  brain fluorescence intensity relative to fluorescently labeled reference peptide Angiopep2: 1.2 times
u87 brain glioma; brain glioma model mice (FIG. 7)
  fluorescence accumulation in the brain tumor site: obvious fluorescence accumulation
u87 brain glioma; brain glioma model mice, tail vein injection, after perfusion (FIG. 5)
  brain enrichment amount compared with fluorescently labeled reference peptide Angiopep2: better than that of the fluorescently labeled reference peptide Angiopep2
